In ChEMBL document CHEMBL1201862, “PubChem BioAssay data set” (2004):
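Grown in 96-well plates, cells were treated for 48 hours with each compound at five concentrations. Insufficient inhibition: endpoint recorded as highest concentration tested. GI50 marks 50% less growth.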 Activity calls are given as the source filed them. No stated cut-off is given here; in the data, active = GI50 up to about 1.1 µM and inactive = higher.

Experiments:
Test in all cases: inhibition of tumour cell growth, NCI panel, 48 h
[1] = tested on: 786-0
[2] = tested on: A498
[3] = tested on: A549
[4] = tested on: ACHN
[5] = tested on: BT-549
[6] = tested on: CAKI-1
[7] = tested on: CCRF-CEM
[8] = tested on: COLO 205
[9] = tested on: DU-145
[10] = tested on: EKVX
[11] = tested on: HCC 2998
[12] = tested on: HCT-116
[13] = tested on: HCT-15
[14] = tested on: HL-60
[15] = tested on: HOP-62
[16] = tested on: HOP-92
[17] = tested on: HT-29
[18] = tested on: Hs-578T
[19] = tested on: IGROV-1
[20] = tested on: K562
[21] = tested on: KM12
[22] = tested on: LOX IMVI
[23] = tested on: M14
[24] = tested on: MCF7
[25] = tested on: MDA-MB-231
[26] = tested on: MDA-MB-435
[27] = tested on: MDA-N
[28] = tested on: MOLT-4
[29] = tested on: Malme-3M
[30] = tested on: NCI-H226
[31] = tested on: NCI-H23
[32] = tested on: NCI-H460
[33] = tested on: NCI-H522
[34] = tested on: NCI/ADR-RES
[35] = tested on: OVCAR-3
[36] = tested on: OVCAR-4
[37] = tested on: OVCAR-5
[38] = tested on: OVCAR-8
[39] = tested on: PC-3
[40] = tested on: RPMI-8226
[41] = tested on: RXF 393
[42] = tested on: SF-268
[43] = tested on: SF-295
[44] = tested on: SK-MEL-28
[45] = tested on: SK-MEL-2
[46] = tested on: SK-MEL-5
[47] = tested on: SK-OV-3
[48] = tested on: SN12C
[49] = tested on: SNB-19
[50] = tested on: SNB-75
[51] = tested on: SR
[52] = tested on: SW-620
[53] = tested on: T47D
[54] = tested on: U-251
[55] = tested on: UACC-257
[56] = tested on: UACC-62
[57] = tested on: UO-31
[58] = tested on: SF-539
[59] = tested on: TK-10

COC(=O)C(CCSC)NC(=O)Cc1ccc(C(=O)c2ccccc2)cc1 (configuration not stated)
GI50 [1]: > 100 µM (inactive)
GI50 [2]: > 100 µM (inactive)
GI50 [3]: 38.4 µM (inactive)
GI50 [4]: > 100 µM (inactive)
GI50 [5]: 29 µM (inactive)
GI50 [6]: 70.3 µM (inactive)
GI50 [7]: 42.5 µM (inactive)
GI50 [8]: > 100 µM (inactive)
GI50 [9]: 86.9 µM (inactive)
GI50 [10]: 39.2 µM (inactive)
GI50 [11]: > 100 µM (inactive)
GI50 [12]: 39.7 µM (inactive)
GI50 [13]: 36.1 µM
GI50 [14]: 32.7 µM (inactive)
GI50 [15]: 88.1 µM (inactive)
GI50 [16]: 41.8 µM (inactive)
GI50 [17]: 25.8 µM (inactive)
GI50 [18]: 33.1 µM (inactive)
GI50 [19]: 64.3 µM (inactive)
GI50 [20]: 37.8 µM (inactive)
GI50 [21]: 25.9 µM (inactive)
GI50 [22]: 55.7 µM (inactive)
GI50 [23]: 35.5 µM (inactive)
GI50 [24]: 47.3 µM (inactive)
GI50 [25]: 37.3 µM (inactive)
GI50 [26]: 29.1 µM (inactive)
GI50 [27]: 14.9 µM (inactive)
GI50 [28]: 55 µM (inactive)
GI50 [29]: > 100 µM (inactive)
GI50 [30]: 78.5 µM (inactive)
GI50 [31]: 44.8 µM (inactive)
GI50 [32]: 34.7 µM (inactive)
GI50 [33]: 57.8 µM (inactive)
GI50 [34]: 26.7 µM (inactive)
GI50 [35]: 67.6 µM (inactive)
GI50 [36]: > 100 µM (inactive)
GI50 [37]: > 100 µM (inactive)
GI50 [38]: 73.3 µM (inactive)
GI50 [39]: 56.8 µM (inactive)
GI50 [40]: 46.5 µM (inactive)
GI50 [41]: > 100 µM (inactive)
GI50 [42]: > 100 µM (inactive)
GI50 [43]: 42.5 µM (inactive)
GI50 [44]: > 100 µM (inactive)
GI50 [45]: 48.6 µM (inactive)
GI50 [46]: 32.5 µM (inactive)
GI50 [47]: 40.4 µM (inactive)
GI50 [48]: 50.1 µM (inactive)
GI50 [49]: 82.6 µM (inactive)
GI50 [50]: 40.6 µM (inactive)
GI50 [51]: 31.3 µM (inactive)
GI50 [52]: 42.4 µM (inactive)
GI50 [53]: 59.2 µM (inactive)
GI50 [54]: 34.6 µM (inactive)
GI50 [55]: > 100 µM (inactive)
GI50 [56]: 51.2 µM (inactive)
GI50 [57]: 53.7 µM (inactive)

C1CCN2CC3CCCN4CCCC(C2C1)C34 (configuration not stated)
GI50 [1]: > 100 µM (inactive)
GI50 [2]: > 100 µM (inactive)
GI50 [3]: > 100 µM (inactive)
GI50 [4]: > 100 µM (inactive)
GI50 [5]: > 100 µM (inactive)
GI50 [6]: > 100 µM (inactive)
GI50 [7]: > 100 µM (inactive)
GI50 [8]: > 100 µM (inactive)
GI50 [9]: > 100 µM (inactive)
GI50 [10]: > 100 µM (inactive)
GI50 [11]: > 100 µM (inactive)
GI50 [12]: > 100 µM (inactive)
GI50 [13]: > 100 µM
GI50 [14]: > 100 µM (inactive)
GI50 [15]: > 100 µM (inactive)
GI50 [16]: > 100 µM (inactive)
GI50 [17]: > 100 µM (inactive)
GI50 [18]: > 100 µM (inactive)
GI50 [19]: > 100 µM (inactive)
GI50 [20]: > 100 µM (inactive)
GI50 [21]: > 100 µM (inactive)
GI50 [22]: > 100 µM (inactive)
GI50 [23]: > 100 µM (inactive)
GI50 [24]: > 100 µM (inactive)
GI50 [25]: > 100 µM (inactive)
GI50 [26]: > 100 µM (inactive)
GI50 [27]: > 100 µM (inactive)
GI50 [28]: > 100 µM (inactive)
GI50 [29]: > 100 µM (inactive)
GI50 [30]: > 100 µM (inactive)
GI50 [31]: > 100 µM (inactive)
GI50 [32]: > 100 µM (inactive)
GI50 [33]: > 100 µM (inactive)
GI50 [34]: > 100 µM (inactive)
GI50 [35]: > 100 µM (inactive)
GI50 [37]: > 100 µM (inactive)
GI50 [38]: > 100 µM (inactive)
GI50 [39]: > 100 µM (inactive)
GI50 [40]: > 100 µM (inactive)
GI50 [41]: > 100 µM (inactive)
GI50 [42]: > 100 µM (inactive)
GI50 [43]: > 100 µM (inactive)
GI50 [58]: > 100 µM (inactive)
GI50 [44]: > 100 µM (inactive)
GI50 [45]: > 100 µM (inactive)
GI50 [46]: > 100 µM (inactive)
GI50 [47]: > 100 µM (inactive)
GI50 [48]: > 100 µM (inactive)
GI50 [49]: > 100 µM (inactive)
GI50 [50]: 50.1 µM (inactive)
GI50 [51]: > 100 µM (inactive)
GI50 [52]: > 100 µM (inactive)
GI50 [53]: > 100 µM (inactive)
GI50 [59]: > 100 µM (inactive)
GI50 [54]: > 100 µM (inactive)
GI50 [55]: > 100 µM (inactive)
GI50 [56]: > 100 µM (inactive)

C[N+](C)(CCNC(=O)c1cccc2cc3ccccc3nc12)Cc1ccc([N+](=O)[O-])cc1
GI50 [1]: > 100 µM (inactive)
GI50 [2]: > 100 µM (inactive)
GI50 [3]: > 100 µM (inactive)
GI50 [4]: > 100 µM (inactive)
GI50 [5]: > 100 µM (inactive)
GI50 [6]: > 100 µM (inactive)
GI50 [7]: > 100 µM (inactive)
GI50 [8]: > 100 µM (inactive)
GI50 [9]: > 100 µM (inactive)
GI50 [10]: > 100 µM (inactive)
GI50 [11]: > 100 µM (inactive)
GI50 [12]: > 100 µM (inactive)
GI50 [13]: > 100 µM
GI50 [14]: > 100 µM (inactive)
GI50 [15]: > 100 µM (inactive)
GI50 [16]: > 100 µM (inactive)
GI50 [17]: > 100 µM (inactive)
GI50 [18]: > 100 µM (inactive)
GI50 [19]: > 100 µM (inactive)
GI50 [20]: > 100 µM (inactive)
GI50 [21]: > 100 µM (inactive)
GI50 [22]: > 100 µM (inactive)
GI50 [23]: > 100 µM (inactive)
GI50 [24]: > 100 µM (inactive)
GI50 [25]: > 100 µM (inactive)
GI50 [26]: > 100 µM (inactive)
GI50 [27]: > 100 µM (inactive)
GI50 [28]: > 100 µM (inactive)
GI50 [29]: 49.5 µM (inactive)
GI50 [30]: > 100 µM (inactive)
GI50 [31]: > 100 µM (inactive)
GI50 [32]: > 100 µM (inactive)
GI50 [33]: > 100 µM (inactive)
GI50 [34]: > 100 µM (inactive)
GI50 [35]: > 100 µM (inactive)
GI50 [36]: > 100 µM (inactive)
GI50 [37]: > 100 µM (inactive)
GI50 [38]: > 100 µM (inactive)
GI50 [39]: > 100 µM (inactive)
GI50 [40]: > 100 µM (inactive)
GI50 [41]: > 100 µM (inactive)
GI50 [42]: > 100 µM (inactive)
GI50 [43]: > 100 µM (inactive)
GI50 [58]: > 100 µM (inactive)
GI50 [44]: > 100 µM (inactive)
GI50 [45]: > 100 µM (inactive)
GI50 [46]: 50 µM (inactive)
GI50 [47]: > 100 µM (inactive)
GI50 [48]: > 100 µM (inactive)
GI50 [49]: > 100 µM (inactive)
GI50 [50]: > 100 µM (inactive)
GI50 [51]: > 100 µM (inactive)
GI50 [52]: > 100 µM (inactive)
GI50 [53]: > 100 µM (inactive)
GI50 [59]: > 100 µM (inactive)
GI50 [54]: > 100 µM (inactive)
GI50 [55]: > 100 µM (inactive)
GI50 [56]: > 100 µM (inactive)
GI50 [57]: > 100 µM (inactive)

CN(C)CCNc1ccc2c(=O)n(CCN(C)C)c(=O)n3c4ccc([N+](=O)[O-])cc4c(=O)c1c23
GI50 [1]: 0.294 µM (active)
GI50 [2]: 1.41 µM (inactive)
GI50 [3]: 0.184 µM (active)
GI50 [4]: 0.146 µM (active)
GI50 [5]: 0.655 µM (active)
GI50 [6]: 0.498 µM (active)
GI50 [7]: 0.0382 µM (active)
GI50 [8]: 0.179 µM (active)
GI50 [9]: 0.267 µM (active)
GI50 [10]: 0.55 µM (active)
GI50 [11]: 0.387 µM (active)
GI50 [12]: 0.0769 µM (active)
GI50 [13]: 0.0966 µM
GI50 [14]: 0.157 µM (active)
GI50 [15]: 0.384 µM (active)
GI50 [16]: 0.201 µM (active)
GI50 [17]: 0.0946 µM (active)
GI50 [18]: 1.01 µM (active)
GI50 [19]: 0.126 µM (active)
GI50 [20]: 0.063 µM (active)
GI50 [21]: 0.518 µM (active)
GI50 [22]: 0.178 µM (active)
GI50 [23]: 1 µM (active)
GI50 [24]: 0.0716 µM (active)
GI50 [25]: 0.429 µM (active)
GI50 [26]: 0.49 µM (active)
GI50 [27]: 0.287 µM (active)
GI50 [28]: < 0.0141 µM (active)
GI50 [29]: 0.344 µM (active)
GI50 [30]: 0.312 µM (active)
GI50 [31]: 0.177 µM (active)
GI50 [32]: 0.0838 µM (active)
GI50 [33]: 0.08 µM (active)
GI50 [34]: 0.251 µM (active)
GI50 [35]: 0.27 µM (active)
GI50 [36]: 0.301 µM (active)
GI50 [37]: 0.532 µM (active)
GI50 [38]: 0.248 µM (active)
GI50 [39]: 0.482 µM (active)
GI50 [40]: 0.163 µM (active)
GI50 [41]: 0.198 µM (active)
GI50 [42]: 0.334 µM (active)
GI50 [43]: 0.359 µM (active)
GI50 [58]: 0.277 µM (active)
GI50 [44]: 1.04 µM (active)
GI50 [45]: 0.397 µM (active)
GI50 [46]: 1.04 µM (active)
GI50 [47]: 0.76 µM (active)
GI50 [48]: 0.197 µM (active)
GI50 [49]: 0.452 µM (active)
GI50 [50]: 0.293 µM (active)
GI50 [51]: 0.0815 µM (active)
GI50 [52]: 0.0524 µM (active)
GI50 [53]: 0.653 µM (active)
GI50 [59]: 1.09 µM (active)
GI50 [54]: 0.34 µM (active)
GI50 [55]: 0.728 µM (active)
GI50 [56]: 1.24 µM (inactive)
GI50 [57]: 0.262 µM (active)
